Columns and labels:
Test in all cases: combination Emax (second highest fraction inhibited in the dose matrix, 72 h); higher = more inhibition; extreme values may be limits of the assay
[1] = tested on: KYSE-220 (Esophageal Squamous Cell Carcinoma)
Procedure, shortened: (§1)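 Bliss excess equals the observed combination effect minus the expected value EA + EB − EA·EB, where EA and EB are the effects of each agent alone. Combination Emax is the second-highest inhibition within the matrix. Inhibition was scaled from CellTiter-Glo 2.0 luminescence, with 0 set by vehicle wells and 1 by blank wells, after 72 hours of two-drug dosing of cells plated in 1536-well plates.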

[2] = tested on: OACp4C (Esophageal Adenocarcinoma)
Procedure, shortened: as §1

[3] = tested on: Jurkat (T-Lymphoblastic Leukemia)
Procedure, shortened: as §1

[4] = tested on: NCI-H2228 (Lung Adenocarcinoma)
Procedure, shortened: as §1

[5] = tested on: JIMT-1 (Breast Carcinoma)
Procedure, shortened: as §1

[6] = tested on: A101D (Melanoma)
Procedure, shortened: as §1

[7] = tested on: ESO26 (Esophageal Adenocarcinoma)
Procedure, shortened: as §1

[8] = tested on: EPLC-272H (Other Solid Carcinomas)
Procedure, shortened: as §1

[9] = tested on: 22RV1 (Prostate Carcinoma)
Procedure, shortened: as §1

[10] = tested on: COLO-792 (Melanoma)
Procedure, shortened: as §1

[11] = tested on: EW-16 (Ewing's Sarcoma)
Procedure, shortened: as §1

[12] = tested on: A2780 (Ovarian Carcinoma)
Procedure, shortened: as §1

[13] = tested on: CGTH-W-1 (Thyroid Gland Carcinoma)
Procedure, shortened: as §1

[14] = tested on: GA-10 (Burkitt's Lymphoma)
Procedure, shortened: as §1

[15] = tested on: NCI-H1703 (Squamous Cell Lung Carcinoma)
Procedure, shortened: as §1

[16] = tested on: 5637 (Bladder Carcinoma)
Procedure, shortened: as §1

[17] = tested on: A204 (Rhabdomyosarcoma)
Procedure, shortened: as §1

[18] = tested on: huH-1 (Hepatocellular Carcinoma)
Procedure, shortened: as §1

[19] = tested on: AU565 (Breast Carcinoma)
Procedure, shortened: as §1

[20] = tested on: NCI-H1651 (Lung Adenocarcinoma)
Procedure, shortened: as §1

Row | Structure (SMILES) | combination Emax [1] | combination Emax [2] | combination Emax [3] | combination Emax [4] | combination Emax [5] | combination Emax [6] | combination Emax [7] | combination Emax [8] | combination Emax [9] | combination Emax [10] | combination Emax [11] | combination Emax [12] | combination Emax [13] | combination Emax [14] | combination Emax [15] | combination Emax [16] | combination Emax [17] | combination Emax [18] | combination Emax [19] | combination Emax [20]
1 | CCN(CCO)CCCOc1ccc2c(Nc3cc(CC(=O)Nc4cccc(F)c4)[nH]n3)ncnc2c1 [AZD2811] + C[C@@H]1COCCN1C2=NC(=NC(=C2)C3(CC3)[S@](=N)(=O)C)C4=C5C=CNC5=NC=C4 [AZD6738] (first compound max 1 µM, 7x7, partner max 10 µM) | 0.884 | 0.733 | 0.865 | 0.517 | 0.677 | 0.682 | 0.0804 | 0.849 | 0.566 | 0.418 | 0.758 | 0.815 | 0.35 | 0.978 | 0.834 | 0.827 | 0.387 | 0.712 | 0.362 | 0.56
2 | NC1(C(=O)N[C@@H](CCO)c2ccc(Cl)cc2)CCN(c2ncnc3[nH]ccc23)CC1 [Capivasertib] + COc1nnc2ccc(N3CCC(c4ccc(OCCN5CCN(C)C(=O)[C@H]5C)cc4)CC3)nn12 [AZD5153] (first compound max 10 µM, 7x7, partner max 1 µM) | 0.838 | 0.905 | 0.992 | 0.52 | 0.446 | 0.66 | 0.753 | 0.944 | 0.649 | 0.94 | 0.515 | 0.873 | 0.408 | 0.927 | 0.733 | 0.627 | 0.517 | 0.358 | 0.664 | 0.0984
3 | Cn1cnc2c(F)c(Nc3ccc(Br)cc3Cl)c(C(=O)NOCCO)cc21 [Selumetinib] + CCN(CCO)CCCOc1ccc2c(Nc3cc(CC(=O)Nc4cccc(F)c4)[nH]n3)ncnc2c1 [AZD2811] (first compound max 10 µM, 7x7, partner max 1 µM) | 0.52 | 0.838 | 0.203 | 0.296 | 0.153 | 0.596 | 0.212 | 0.634 | 0.383 | 0.51 | 0.551 | 0.702 | 0.125 | 0.7 | 0.472 | 0.81 | 0.286 | 0.307 | 0.2 | 0.209
4 | C=CCn1c(=O)c2cnc(Nc3ccc(N4CCN(C)CC4)cc3)nc2n1-c1cccc(C(C)(C)O)n1 [AZD1775] + C[C@@H]1COCCN1C2=NC(=NC(=C2)C3(CC3)[S@](=N)(=O)C)C4=C5C=CNC5=NC=C4 [AZD6738] (first compound max 1 µM, partner max 10 µM) | 0.941 | 0.831 | 0.991 | 0.653 | 0.76 | 0.749 | 0.399 | 0.882 | 0.636 | 0.474 | 0.771 | 0.938 | 0.434 | 1 | 0.958 | 0.898 | 0.369 | 0.794 | 0.603 | 0.823
5 | CC1(C)CCC(CN2CCN(c3ccc(C(=O)NS(=O)(=O)c4ccc(NCC5CCOCC5)c([N+](=O)[O-])c4)c(Oc4cnc5[nH]ccc5c4)c3)CC2)=C(c2ccc(Cl)cc2)C1 [Venetoclax] + COc1cc(Nc2ncc3c(n2)-c2ccc(Cl)cc2C(c2c(F)cccc2OC)=NC3)ccc1C(=O)O [Alisertib] (first compound max 1 µM, 7x7, partner max 10 µM) | 0.379 | 0.72 | 0.741 | 0.396 | 0.268 | 0.632 | 0.198 | 0.514 | 0.329 | 0.405 | 0.726 | 0.709 | 0.598 | 0.995 | 0.554 | 0.778 | 0.431 | 0.257 | 0.504 | 0.269
6 | CC1(C)CCC(CN2CCN(c3ccc(C(=O)NS(=O)(=O)c4ccc(NCC5CCOCC5)c([N+](=O)[O-])c4)c(Oc4cnc5[nH]ccc5c4)c3)CC2)=C(c2ccc(Cl)cc2)C1 [Venetoclax] + CN(C)CCCOc1ccc(-c2ccc3ncc4c(c3c2)n(C2CCOCC2)c(=O)n4C)cn1 [AZD0156] (first compound max 1 µM, 7x7, partner max 1 µM) | 0.195 | 0.224 | 0.161 | 0.306 | 0.167 | 0.365 | 0.0967 | 0.395 | 0.423 | 0.245 | 0.19 | 0.491 | 0.17 | 0.278 | 0.407 | 0.15 | 0.31 | 0.171 | 0.234 | 0.194
7 | CC(=O)c1c(C)c2cnc(Nc3ccc(N4CCNCC4)cn3)nc2n(C2CCCC2)c1=O [Palbociclib] + Cc1c2c(nn1C)CSCc1cc(n(C)n1)CSc1cc(c3ccccc3c1)OCCCc1c(C(=O)O)n(C)c3c-2c(Cl)ccc13 [AZD5991] (first compound max 10 µM, 7x7, partner max 1 µM) | 0.305 | 0.46 | 0.883 | 0.247 | 0.179 | 0.588 | 0.63 | 0.822 | 0.503 | 0.836 | 0.415 | 0.912 | 0.176 | 0.975 | 0.815 | 0.197 | 0.37 | 0.236 | 0.998 | 0.143
8 | CCN(CCO)CCCOc1ccc2c(Nc3cc(CC(=O)Nc4cccc(F)c4)[nH]n3)ncnc2c1 [AZD2811] + C=CCn1c(=O)c2cnc(Nc3ccc(N4CCN(C)CC4)cc3)nc2n1-c1cccc(C(C)(C)O)n1 [AZD1775] (first compound max 1 µM, partner max 1 µM) | 0.804 | 0.809 | 0.798 | 0.598 | 0.488 | 0.427 | 0.604 | 0.803 | 0.234 | 0.396 | 0.41 | 0.82 | 0.217 | 0.992 | 0.94 | 0.893 | 0.27 | 0.696 | 0.449 | 0.634
9 | CC1(C)CCC(CN2CCN(c3ccc(C(=O)NS(=O)(=O)c4ccc(NCC5CCOCC5)c([N+](=O)[O-])c4)c(Oc4cnc5[nH]ccc5c4)c3)CC2)=C(c2ccc(Cl)cc2)C1 [Venetoclax] + C[C@@H](Nc1cc(F)cc(F)c1)c1cc(C(=O)N(C)C)cc2c(=O)cc(N3CCOCC3)oc12 [AZD8186] (first compound max 1 µM, 7x7, partner max 3 µM) | 0.141 | 0.31 | 0.271 | 0.293 | 0.087 | 0.387 | 0.0996 | 0.419 | 0.322 | 0.328 | 0.17 | 0.472 | 0.116 | 0.617 | 0.422 | 0.141 | 0.327 | 0.152 | 0.225 | 0.128
10 | COc1cccc2c1C(=O)c1c(O)c3c(c(O)c1C2=O)C[C@@](O)(C(=O)CO)C[C@@H]3O[C@H]1C[C@H](N)[C@H](O)[C@H](C)O1 [Doxorubicin] + Cc1cc2ncnn2cc1Nc1ncc2c(n1)n(C1CCOCC1)c(=O)n2C [AZD7648] (first compound max 1 µM, 7x7, partner max 10 µM) | 0.979 | 0.783 | 0.972 | 0.742 | 0.697 | 0.897 | 0.801 | 0.539 | 0.805 | 0.445 | 0.913 | 0.934 | 0.749 | 0.963 | 0.932 | 0.546 | 0.925 | 0.55 | 0.733 | 0.712
11 | COc1cccc(OCCCN)c1-c1cc(Nc2cnc(C#N)cn2)n[nH]1 [Prexasertib] + CCc1c2c(nc3ccc(O)cc13)-c1cc3c(c(=O)n1C2)COC(=O)[C@]3(O)CC [SN-38] (first compound max 1 µM, 7x7, partner max 0.3 µM) | 0.96 | 0.918 | 1 | 0.821 | 0.87 | 0.899 | 0.76 | 0.922 | 0.727 | 0.559 | 0.984 | 0.857 | 0.832 | 1 | 0.971 | 1 | 0.678 | 0.767 | 0.949 | 0.879
12 | C=CCn1c(=O)c2cnc(Nc3ccc(N4CCN(C)CC4)cc3)nc2n1-c1cccc(C(C)(C)O)n1 [AZD1775] + O=C(c1cc(Cc2n[nH]c(=O)c3ccccc23)ccc1F)N1CCN(C(=O)C2CC2)CC1 [Olaparib] (first compound max 1 µM, partner max 10 µM) | 0.857 | 0.806 | 0.842 | 0.592 | 0.558 | 0.604 | 0.474 | 0.761 | 0.323 | 0.284 | 0.529 | 0.76 | 0.193 | 0.981 | 0.962 | 0.836 | 0.24 | 0.634 | 0.449 | 0.736
